Tests used:
[1] = molecular target: 5-hydroxytryptamine receptor 2C (Homo sapiens) (UniProt P28335); details: Compound concentration 10.0 uM
[2] = molecular target: Receptor-interacting serine/threonine-protein kinase 4 (Homo sapiens) (UniProt P57078); details: Compound concentration 100.0 nM
[3] = molecular target: MAP kinase-interacting serine/threonine-protein kinase 2 (Homo sapiens) (UniProt Q9HBH9); details: Compound concentration 100.0 nM
[4] = molecular target: STE20/SPS1-related proline-alanine-rich protein kinase (Homo sapiens) (UniProt Q9UEW8); details: Compound concentration 100.0 nM
[5] = molecular target: Cyclin-dependent kinase 19 (Homo sapiens) (UniProt Q9BWU1); details: Compound concentration 100.0 nM
[6] = tested on: Mast/stem cell growth factor receptor Kit (Homo sapiens), P10721 [D816H]; details: Compound concentration 100.0 nM
[7] = molecular target: Ribosomal protein S6 kinase alpha-4 (Homo sapiens) (UniProt O75676); details: Compound concentration 100.0 nM
[8] = molecular target: Serine/threonine-protein kinase N2 (Homo sapiens) (UniProt Q16513); details: Compound concentration 100.0 nM
[9] = molecular target: Mitogen-activated protein kinase kinase kinase 9 (Homo sapiens) (UniProt P80192); details: Compound concentration 100.0 nM
[10] = molecular target: Serine/threonine-protein kinase 24 (Homo sapiens) (UniProt Q9Y6E0); details: Compound concentration 100.0 nM
[11] = tested on: Phosphatidylinositol 4,5-bisphosphate 3-kinase catalytic subunit alpha isoform (Homo sapiens), P42336 [Q546K]; details: Compound concentration 100.0 nM
[12] = molecular target: Ribosomal protein S6 kinase alpha-5 (Homo sapiens) (UniProt O75582); details: Compound concentration 100.0 nM
[13] = molecular target: Serine/threonine-protein kinase PAK 1 (Homo sapiens) (UniProt Q13153); details: Compound concentration 100.0 nM
[14] = molecular target: Serine/threonine-protein kinase RIO1 (Homo sapiens) (UniProt Q9BRS2); details: Compound concentration 100.0 nM
[15] = molecular target: Membrane-associated tyrosine- and threonine-specific cdc2-inhibitory kinase (Homo sapiens) (UniProt Q99640); details: Compound concentration 100.0 nM
[16] = molecular target: 3-phosphoinositide-dependent protein kinase 1 (Homo sapiens) (UniProt O15530); details: Compound concentration 100.0 nM
[17] = molecular target: Mitogen-activated protein kinase kinase kinase 4 (Homo sapiens) (UniProt Q9Y6R4); details: Compound concentration 100.0 nM
[18] = molecular target: Mitogen-activated protein kinase 9 (Homo sapiens) (UniProt P45984); details: Compound concentration 100.0 nM
[19] = molecular target: Serine/threonine-protein kinase BRSK2 (Homo sapiens) (UniProt Q8IWQ3); details: Compound concentration 100.0 nM
[20] = molecular target: Aurora kinase B (Homo sapiens) (UniProt Q96GD4); details: Compound concentration 100.0 nM
[21] = tested on: Phosphatidylinositol 4,5-bisphosphate 3-kinase catalytic subunit alpha isoform (Homo sapiens), P42336 [C420R]; details: Compound concentration 100.0 nM
[22] = molecular target: Mitogen-activated protein kinase kinase kinase 2 (Homo sapiens) (UniProt Q9Y2U5); details: Compound concentration 100.0 nM
[23] = molecular target: MAP kinase-activated protein kinase 2 (Homo sapiens) (UniProt P49137); details: Compound concentration 100.0 nM
[24] = molecular target: Sigma intracellular receptor 2 (Homo sapiens, UniProt Q5BJF2); details: Compound concentration 10.0 uM
[25] = molecular target: Tyrosine-protein kinase HCK (Homo sapiens) (UniProt P08631); details: Compound concentration 100.0 nM
[26] = tested on: Tyrosine-protein kinase ABL1 (Homo sapiens), P00519 [F317I]; details: Compound concentration 100.0 nM
[27] = tested on: Receptor-type tyrosine-protein kinase FLT3 (Homo sapiens), P36888 [D835V]; details: Compound concentration 100.0 nM
[28] = molecular target: Dual specificity mitogen-activated protein kinase kinase 3 (Homo sapiens) (UniProt P46734); details: Compound concentration 100.0 nM
[29] = molecular target: Calcium-dependent protein kinase 1 (Plasmodium falciparum) (UniProt P62344); details: Compound concentration 100.0 nM
[30] = tested on: Proto-oncogene tyrosine-protein kinase receptor Ret (Homo sapiens), P07949 [V804M]; details: Compound concentration 100.0 nM
[31] = tested on: Phosphatidylinositol 4,5-bisphosphate 3-kinase catalytic subunit alpha isoform (Homo sapiens), P42336 [M1043I]; details: Compound concentration 100.0 nM
[32] = molecular target: Serine/threonine-protein kinase Sgk3 (Homo sapiens) (UniProt Q96BR1); details: Compound concentration 100.0 nM
[33] = molecular target: TGF-beta receptor type-2 (Homo sapiens) (UniProt P37173); details: Compound concentration 100.0 nM
[34] = molecular target: Ribosomal protein S6 kinase alpha-4 (Homo sapiens) (UniProt O75676); details: Compound concentration 100.0 nM; remark: listed apart in the source
[35] = molecular target: Sodium-dependent dopamine transporter (Homo sapiens) (UniProt Q01959); details: Compound concentration 10.0 uM
[36] = molecular target: TGF-beta receptor type-1 (Homo sapiens) (UniProt P36897); details: Compound concentration 100.0 nM
[37] = molecular target: Receptor tyrosine-protein kinase erbB-3 (Homo sapiens) (UniProt P21860); details: Compound concentration 100.0 nM
[38] = molecular target: Receptor-type tyrosine-protein kinase FLT3 (Homo sapiens) (UniProt P36888); details: Compound concentration 100.0 nM
[39] = molecular target: Serine/threonine-protein kinase ICK (Homo sapiens) (UniProt Q9UPZ9); details: Compound concentration 100.0 nM
[40] = molecular target: Phosphorylase b kinase regulatory subunit alpha, liver isoform (Homo sapiens) (UniProt P46019); details: Compound concentration 100.0 nM
[41] = molecular target: Calcium/calmodulin-dependent protein kinase type 1G (Homo sapiens) (UniProt Q96NX5); details: Compound concentration 100.0 nM
[42] = molecular target: Serine/threonine-protein kinase tousled-like 2 (Homo sapiens) (UniProt Q86UE8); details: Compound concentration 100.0 nM
[43] = molecular target: D(3) dopamine receptor (Homo sapiens) (UniProt P35462); details: Compound concentration 10.0 uM
[44] = molecular target: Serine/threonine-protein kinase PAK 6 (Homo sapiens) (UniProt Q9NQU5); details: Compound concentration 100.0 nM

Ribosomal protein S6 kinase alpha-4 (Homo sapiens), sequence (O75676 whole entry, looked up): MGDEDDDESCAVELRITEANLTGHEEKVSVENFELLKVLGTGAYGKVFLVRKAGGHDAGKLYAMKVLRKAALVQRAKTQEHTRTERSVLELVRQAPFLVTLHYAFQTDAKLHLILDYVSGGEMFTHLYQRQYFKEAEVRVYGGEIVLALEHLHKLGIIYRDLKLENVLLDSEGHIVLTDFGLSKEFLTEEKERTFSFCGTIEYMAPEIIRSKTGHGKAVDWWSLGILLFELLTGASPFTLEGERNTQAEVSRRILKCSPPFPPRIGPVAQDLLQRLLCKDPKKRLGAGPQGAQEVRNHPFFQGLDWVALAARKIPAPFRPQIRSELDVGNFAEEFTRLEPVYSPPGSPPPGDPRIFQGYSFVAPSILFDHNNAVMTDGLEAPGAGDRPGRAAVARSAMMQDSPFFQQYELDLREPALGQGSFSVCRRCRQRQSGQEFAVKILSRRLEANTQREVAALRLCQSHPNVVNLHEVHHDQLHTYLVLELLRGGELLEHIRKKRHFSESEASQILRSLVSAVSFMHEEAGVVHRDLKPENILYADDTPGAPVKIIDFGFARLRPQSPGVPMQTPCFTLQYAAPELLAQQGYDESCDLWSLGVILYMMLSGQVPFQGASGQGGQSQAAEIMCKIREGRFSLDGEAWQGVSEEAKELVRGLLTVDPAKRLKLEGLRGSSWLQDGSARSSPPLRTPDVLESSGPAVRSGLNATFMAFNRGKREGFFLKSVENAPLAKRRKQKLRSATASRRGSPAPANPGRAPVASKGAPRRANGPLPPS
Mitogen-activated protein kinase kinase kinase 2 (Homo sapiens), sequence (Q9Y2U5 whole entry): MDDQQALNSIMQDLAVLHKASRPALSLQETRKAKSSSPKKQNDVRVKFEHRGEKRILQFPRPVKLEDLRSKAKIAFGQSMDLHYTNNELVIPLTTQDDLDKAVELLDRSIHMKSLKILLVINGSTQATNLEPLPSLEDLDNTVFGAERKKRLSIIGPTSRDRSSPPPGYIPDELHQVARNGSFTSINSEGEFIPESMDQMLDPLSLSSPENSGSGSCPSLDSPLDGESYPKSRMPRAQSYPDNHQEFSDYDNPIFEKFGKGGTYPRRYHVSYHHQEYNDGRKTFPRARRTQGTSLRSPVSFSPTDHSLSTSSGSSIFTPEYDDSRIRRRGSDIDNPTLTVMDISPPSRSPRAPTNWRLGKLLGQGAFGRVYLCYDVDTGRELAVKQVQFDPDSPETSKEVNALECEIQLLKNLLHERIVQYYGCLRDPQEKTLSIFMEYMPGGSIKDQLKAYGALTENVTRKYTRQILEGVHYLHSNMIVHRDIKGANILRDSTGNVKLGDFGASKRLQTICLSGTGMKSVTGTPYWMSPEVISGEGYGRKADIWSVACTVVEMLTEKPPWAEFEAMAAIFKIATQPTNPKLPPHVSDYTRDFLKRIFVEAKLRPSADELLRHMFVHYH
3-phosphoinositide-dependent protein kinase 1 (Homo sapiens), sequence (O15530 whole entry): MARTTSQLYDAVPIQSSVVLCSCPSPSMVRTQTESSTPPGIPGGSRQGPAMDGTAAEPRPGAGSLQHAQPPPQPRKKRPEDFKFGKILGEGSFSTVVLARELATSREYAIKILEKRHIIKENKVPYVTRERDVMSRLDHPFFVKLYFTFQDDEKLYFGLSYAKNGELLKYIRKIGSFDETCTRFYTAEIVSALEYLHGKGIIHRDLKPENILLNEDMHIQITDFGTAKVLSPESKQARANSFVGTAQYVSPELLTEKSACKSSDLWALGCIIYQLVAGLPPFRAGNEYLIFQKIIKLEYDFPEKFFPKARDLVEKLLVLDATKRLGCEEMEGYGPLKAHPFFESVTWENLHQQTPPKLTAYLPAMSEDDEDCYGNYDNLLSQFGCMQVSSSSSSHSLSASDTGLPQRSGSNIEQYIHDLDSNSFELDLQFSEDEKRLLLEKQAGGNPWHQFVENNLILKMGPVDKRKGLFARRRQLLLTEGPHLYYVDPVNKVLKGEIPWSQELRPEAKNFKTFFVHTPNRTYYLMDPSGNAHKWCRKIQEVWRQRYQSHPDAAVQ
Serine/threonine-protein kinase RIO1 (Homo sapiens), sequence (Q9BRS2 whole entry): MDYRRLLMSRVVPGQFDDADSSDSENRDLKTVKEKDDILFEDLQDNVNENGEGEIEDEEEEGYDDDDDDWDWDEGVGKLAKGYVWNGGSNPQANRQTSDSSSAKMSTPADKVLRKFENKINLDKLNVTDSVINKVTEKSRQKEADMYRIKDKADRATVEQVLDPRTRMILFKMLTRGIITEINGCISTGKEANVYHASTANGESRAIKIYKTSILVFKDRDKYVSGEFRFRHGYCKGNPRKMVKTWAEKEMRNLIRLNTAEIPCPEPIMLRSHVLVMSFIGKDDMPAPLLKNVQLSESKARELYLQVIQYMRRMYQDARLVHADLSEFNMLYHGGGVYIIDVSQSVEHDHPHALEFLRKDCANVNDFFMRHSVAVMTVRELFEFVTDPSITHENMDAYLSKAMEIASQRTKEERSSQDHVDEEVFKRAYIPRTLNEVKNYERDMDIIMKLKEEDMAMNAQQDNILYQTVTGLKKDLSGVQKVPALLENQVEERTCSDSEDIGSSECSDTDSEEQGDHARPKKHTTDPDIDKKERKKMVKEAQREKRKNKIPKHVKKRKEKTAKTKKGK
Receptor tyrosine-protein kinase erbB-3 (Homo sapiens), sequence (P21860 whole entry): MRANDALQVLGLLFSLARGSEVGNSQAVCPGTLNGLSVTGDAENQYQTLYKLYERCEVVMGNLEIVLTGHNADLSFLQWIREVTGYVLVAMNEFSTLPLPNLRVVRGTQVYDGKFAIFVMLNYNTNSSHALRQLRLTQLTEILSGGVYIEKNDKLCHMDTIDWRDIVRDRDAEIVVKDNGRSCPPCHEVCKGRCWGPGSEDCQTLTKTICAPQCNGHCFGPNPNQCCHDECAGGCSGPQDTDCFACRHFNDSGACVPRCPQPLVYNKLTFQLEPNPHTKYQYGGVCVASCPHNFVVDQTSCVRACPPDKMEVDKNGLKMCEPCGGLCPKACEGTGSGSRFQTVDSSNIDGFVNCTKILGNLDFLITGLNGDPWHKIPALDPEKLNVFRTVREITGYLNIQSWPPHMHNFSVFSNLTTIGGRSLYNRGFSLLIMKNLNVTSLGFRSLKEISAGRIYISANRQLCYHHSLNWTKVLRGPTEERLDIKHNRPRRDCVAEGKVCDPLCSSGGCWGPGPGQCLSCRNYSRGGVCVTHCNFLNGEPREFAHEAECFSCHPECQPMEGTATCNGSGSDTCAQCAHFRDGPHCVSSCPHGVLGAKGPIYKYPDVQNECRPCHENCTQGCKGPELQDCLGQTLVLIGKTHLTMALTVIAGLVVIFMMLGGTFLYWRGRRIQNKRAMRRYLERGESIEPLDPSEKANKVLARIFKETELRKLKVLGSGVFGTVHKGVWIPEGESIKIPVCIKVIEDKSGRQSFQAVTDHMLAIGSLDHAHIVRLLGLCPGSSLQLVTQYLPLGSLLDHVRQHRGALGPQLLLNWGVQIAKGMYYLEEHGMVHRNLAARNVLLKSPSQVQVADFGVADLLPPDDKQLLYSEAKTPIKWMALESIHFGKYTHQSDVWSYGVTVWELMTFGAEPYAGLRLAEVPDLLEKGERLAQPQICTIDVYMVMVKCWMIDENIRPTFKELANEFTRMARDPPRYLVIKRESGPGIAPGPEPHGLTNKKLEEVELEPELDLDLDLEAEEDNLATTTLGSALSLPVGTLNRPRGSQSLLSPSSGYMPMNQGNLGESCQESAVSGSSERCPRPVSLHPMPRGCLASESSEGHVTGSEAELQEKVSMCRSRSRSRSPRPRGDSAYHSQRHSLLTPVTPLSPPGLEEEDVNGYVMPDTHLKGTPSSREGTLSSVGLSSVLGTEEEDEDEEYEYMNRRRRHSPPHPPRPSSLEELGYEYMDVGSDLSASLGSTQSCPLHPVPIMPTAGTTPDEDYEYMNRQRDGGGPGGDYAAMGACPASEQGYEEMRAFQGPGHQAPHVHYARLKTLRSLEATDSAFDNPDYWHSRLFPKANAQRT
Mitogen-activated protein kinase 9 (Homo sapiens), sequence (P45984 whole entry, looked up): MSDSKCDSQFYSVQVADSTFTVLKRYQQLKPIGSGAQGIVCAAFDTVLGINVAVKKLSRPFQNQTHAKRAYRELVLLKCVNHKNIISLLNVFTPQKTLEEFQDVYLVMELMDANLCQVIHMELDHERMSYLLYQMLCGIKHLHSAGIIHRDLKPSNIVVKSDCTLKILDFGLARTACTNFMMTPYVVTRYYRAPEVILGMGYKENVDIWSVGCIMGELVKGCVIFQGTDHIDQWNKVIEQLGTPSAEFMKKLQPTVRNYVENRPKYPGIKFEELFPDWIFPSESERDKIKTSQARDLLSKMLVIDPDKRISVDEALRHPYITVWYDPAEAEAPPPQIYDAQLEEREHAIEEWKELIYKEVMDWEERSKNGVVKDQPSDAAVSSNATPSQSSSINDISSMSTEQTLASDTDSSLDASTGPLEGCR
Sodium-dependent dopamine transporter (Homo sapiens), sequence (Q01959 whole entry): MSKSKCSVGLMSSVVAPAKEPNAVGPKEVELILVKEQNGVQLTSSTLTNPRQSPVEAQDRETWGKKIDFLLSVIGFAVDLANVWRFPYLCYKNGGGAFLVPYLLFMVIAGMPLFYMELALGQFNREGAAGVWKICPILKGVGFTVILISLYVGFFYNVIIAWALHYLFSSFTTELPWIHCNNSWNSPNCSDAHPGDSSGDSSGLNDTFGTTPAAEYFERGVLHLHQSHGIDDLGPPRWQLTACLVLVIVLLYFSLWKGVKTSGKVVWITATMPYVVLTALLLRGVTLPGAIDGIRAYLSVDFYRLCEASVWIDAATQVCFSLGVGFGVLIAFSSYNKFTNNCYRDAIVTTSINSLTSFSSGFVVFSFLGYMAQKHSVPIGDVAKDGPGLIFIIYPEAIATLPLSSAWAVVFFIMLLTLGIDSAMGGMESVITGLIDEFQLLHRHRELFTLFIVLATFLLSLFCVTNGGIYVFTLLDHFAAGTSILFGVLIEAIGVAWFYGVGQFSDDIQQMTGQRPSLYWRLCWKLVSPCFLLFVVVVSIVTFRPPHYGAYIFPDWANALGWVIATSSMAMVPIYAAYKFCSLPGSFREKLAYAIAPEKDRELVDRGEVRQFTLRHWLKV

Nc1c(C(=O)NCc2ccc(C(=O)NCCCC3CCCCC3)cc2)cnn1-c1ccccc1 [SR-318]
inhibition [1]: 10% | residual activity [2]: 100% | residual activity [3]: 100% | residual activity [4]: 96% | residual activity [5]: 99% | residual activity [6]: 61% | residual activity [7]: 98% | residual activity [8]: 78% | residual activity [9]: 96% | residual activity [10]: 91% | residual activity [11]: 96% | residual activity [12]: 23% | residual activity [13]: 100% | residual activity [14]: 95% | residual activity [15]: 100% | residual activity [16]: 100% | residual activity [17]: 81% | residual activity [18]: 100% | residual activity [19]: 79% | residual activity [20]: 81% | residual activity [21]: 100% | residual activity [22]: 100% | residual activity [23]: 100% | inhibition [24]: 45.3% | residual activity [25]: 100% | residual activity [26]: 92% | residual activity [27]: 100% | residual activity [28]: 85% | residual activity [29]: 86% | residual activity [30]: 98% | residual activity [31]: 100% | residual activity [32]: 90% | residual activity [33]: 99% | residual activity [34]: 85% | inhibition [35]: 26.8% | residual activity [36]: 100% | residual activity [37]: 44% | residual activity [38]: 100% | residual activity [39]: 100% | residual activity [40]: 100% | residual activity [41]: 100% | residual activity [42]: 100% | inhibition [43]: 21.2% | residual activity [44]: 100%

O=C(NCCCC1CCCCC1)c1ccc(CNC(=O)c2cnn(-c3ccccc3)c2C(F)(F)F)cc1 [SR-321]
inhibition [1]: 6.21% | residual activity [2]: 58% | residual activity [3]: 100% | residual activity [4]: 100% | residual activity [5]: 96% | residual activity [6]: 78% | residual activity [7]: 90% | residual activity [8]: 100% | residual activity [9]: 100% | residual activity [10]: 100% | residual activity [11]: 67% | residual activity [12]: 82% | residual activity [13]: 92% | residual activity [14]: 100% | residual activity [15]: 77% | residual activity [16]: 100% | residual activity [17]: 100% | residual activity [18]: 85% | residual activity [19]: 100% | residual activity [20]: 95% | residual activity [21]: 85% | residual activity [22]: 100% | residual activity [23]: 100% | inhibition [24]: 54.8% | residual activity [25]: 100% | residual activity [26]: 100% | residual activity [27]: 88% | residual activity [28]: 100% | residual activity [29]: 100% | residual activity [30]: 100% | residual activity [31]: 68% | residual activity [32]: 92% | residual activity [33]: 100% | residual activity [34]: 83% | inhibition [35]: 22.3% | residual activity [36]: 89% | residual activity [37]: 100% | residual activity [38]: 100% | residual activity [39]: 79% | residual activity [40]: 100% | residual activity [41]: 100% | residual activity [42]: 100% | inhibition [43]: 2.65% | residual activity [44]: 100%
